The values that follow come from patent US20110195432A1, “METHODS FOR THE SELECTION OF THERAPEUTIC TREATMENTS FOR CANCER” (priority 2008, published 2011).

Assay [1] concerns Her2Neu protein. The conditions noted are these: breast cancer cells; through proteasomal degradation; cited from earlier work.
In assay [2] the test system is AR. Put plainly: Western blot of AR protein levels, LNCaP cells. In kind it is cell-based. Conditions: LNCaP cells. On the technique in general: In western blotting, separated proteins are transferred to a membrane and probed.
In assay [3] the test system is acetylated alpha-tubulin. Put plainly: Western blot of acetylated alpha-tubulin, LNCaP cells. In kind it is cell-based. Conditions: LNCaP cells; increasing concentrations of CDDO-Imidazole, 24 hours. Here is the method: (§1) The vehicle sample was set to 1.
LNCaP cells were transiently transfected with either a siRNA sequence complementary to the luciferase gene ([…]; SEQ ID NO: 8) or to HDAC6 ([…]; SEQ ID NO: 9) using DharmaFECT 3 transfection reagent for a final concentration of 100 nM (Dharmacon, Lafayette, Colo.). At 48, 72, and 96 hours post-transfection, cells were harvested. Levels of protein expression by Western blot were quantified.

For assay [4], the system named is HDAC6. Put plainly: Western blot of HDAC6 protein levels, VCaP cells. The format is cell-based. The conditions noted are these: increasing concentrations of CDDO-Imidazole, 24 hours.
Description: as §1

Assay [5] has as its system AR. Put plainly: Western blot of AR protein levels, VCaP cells. The format is cell-based. Conditions: TSA or increasing concentrations of CDDO-Imidazole (24 hours), compared with sulforaphane results.
Assay [6] deals with acetylated tubulin. Put plainly: Western blot of acetylated tubulin, VCaP cells. The format is cell-based. The conditions noted are these: increasing concentrations of CDDO-Imidazole, 24 hours.
Description: as §1

The subject of assay [7] is HDAC6. Put plainly: Western blot of HDAC6 protein levels, LNCaP cells. In kind it is cell-based. The conditions noted are these: LNCaP cells.
The subject of assay [8] is AR. Put plainly: Real-time PCR of AR gene expression, LNCaP cells. In kind it is cell-based. The conditions noted are these: increasing doses of sulforaphane, or TSA, vehicle set to 1. From the text:
(§2) All samples were run in triplicate. The vehicle-treated sample was set to 1.

For assay [9], the system named is AR. Put plainly: Real-time PCR of AR gene expression, VCaP cells. The format is cell-based. Conditions: 24 hours, increasing doses of sulforaphane, or TSA, vehicle set to 1.
Description: as §2
(In qPCR the cycle at which signal appears reflects the starting amount.)

The test system of assay [10] is AR. Put plainly: Western blot of AR protein levels, LNCaP cells. In kind it is cell-based. How it is done: Immunoprecipitation and immunoblotting were performed as described (Qian et al., Clin. Cancer Res. 12:634-42, 2006). The following antibodies used in immunoblotting or immunoprecipitations (indicated dilutions are for immunoblotting): AR (1:1000, #06-680 Upstate, Billerica, Mass.); acetylated lysine (#05-515 Upstate, Billerica, Mass.); acetylated tubulin (1:2000, #T6793 Sigma, St. Louis, Mo.); alpha-tubulin (1:10,000, #T6074 Sigma, St. Louis, Mo.); beta-actin (1:5000, #A5441 Sigma, St. Louis, Mo.); ERG-1/2/3, (1:5000, #sc-354X Santa Cruz, Santa Cruz, Calif.); FLAG epitope (#F7425 Sigma, St. Louis, Mo.); GAPDH (1:5000, #sc-32233 Santa Cruz, Santa Cruz, Calif.); HDAC6 (1:1000, #sc-11420 Santa Cruz); HSP90 (1:1000, #SPA-840 Stressgen, Ann Arbor, Mich.); mouse IgG (#sc-2025 Santa Cruz, Santa Cruz, Calif.). The following secondary antibodies were used: ECL-conjugated anti-mouse IgG, (1:5000, #A6782 Sigma, St. Louis, Mo.); ECL-conjugated anti-rabbit IgG (1:3000, #NA934 Amersham, Piscataway, N.J. or 1:10,000, #sc-2004 Santa Cruz, Santa Cruz, Calif.). X-ray exposures were scanned as uncompressed images and bands were quantified by densitometry with Quantity One software (Bio-Rad, Hercules, Calif.). Intensity values were normalized to those of the endogenous controls. The vehicle sample was set to 1. Enrichment was calculated as: (intensity IP/intensity input)/(intensity IgG/intensity input) or intensity IP/input (FIG. 1B).
LNCaP cells were treated with sulforaphane in a dose-response (5 μM to 20 μM) and time-course (12 and 24 hours) manner to investigate the effect of HDAC6 inhibition on AR protein levels. Western blotting was performed as described in Example 1. […]

Each structure is given as a SMILES string. Residues, ends and D or L forms follow the SMILES beside them. *: point of attachment. Cbz = O=C(OCc1ccccc1)*

On to `CC1(C)CC[C@]2(C(=O)n3ccnc3)CC[C@]3(C)[C@H](C(=O)C=C4[C@@]5(C)C=C(C#N)C(=O)C(C)(C)[C@@H]5CC[C@]43C)[C@@H]2C1` [CDDO-Imidazole], for which, in [1], the Her2Neu protein levels entry is reported as “deplete Her2Neu protein levels”. The AR protein levels result was “reduced AR protein levels” in assay [2] (TSA or increasing concentrations of CDDO-Imidazole (24 hours), compared with sulforaphane results) and “reduced AR protein levels” in [5]. Besides, the tubulin acetylation result in assay [3] and in [6] was “increased tubulin acetylation” throughout. For the same molecule, the HDAC6 protein entry is on record as “depletes HDAC6 in a dose-dependent manner” in assay [4] and “depletes HDAC6 in a dose-dependent manner” in assay [7] (increasing concentrations of CDDO-Imidazole, 24 hours).

Consider `CC(C)C[C@@H](C=O)NC(=O)[C@H](CC(C)C)NC(=O)[C@H](CC(C)C)NC(=O)OCc1ccccc1` [MG132] (Cbz-Leu-Leu-Leu-aldehyde), for which the “AR protein levels, MG132 alone” value in [2] (24 hours, 10 μM MG132 versus vehicle) is “did not change AR protein levels”.

For the molecule `CC(/C=C/C(=O)NO)=C\[C@@H](C)C(=O)c1ccc(N(C)C)cc1` [TSA, trichostatin A], the AR transcripts entry in [8] and in assay [9] was “suppressed AR transcripts” throughout. In addition, in [10] (24 hours, sulforaphane 20 μM or 300 nM TSA with 10 μM MG132), the “AR steady state level with simultaneous MG132 treatment” value is reported as “restored the AR steady state level close to that seen in the vehicle-treated control”. The “AR protein in the absence of MG132” value in [10] (24 hours, sulforaphane 20 μM or 300 nM TSA, versus vehicle-treated cells) is “dramatic reductions”. For the same molecule, the “AR protein levels at 24 hours” value in assay [10] (sulforaphane 15 μM and 20 μM, TSA) was “recovered”. Also, the HDAC6 protein levels entry in assay [7] (16 hours, 300 nM TSA without or with 20 μM MG132) was “minimal effects”.
